{
  "source": "PubChem BioAssay (NCI)",
  "assay_in_all_cases": "inhibition of tumour cell growth, NCI panel, 48 h",
  "key": {"786-0 renal": {"test_system": "786-0 renal"}, "A498 renal": {"test_system": "A498 renal"}, "A549 NSCLC": {"test_system": "A549 NSCLC"}, "ACHN renal": {"test_system": "ACHN renal"}, "CAKI-1 renal": {"test_system": "CAKI-1 renal"}, "CCRF-CEM leukemia": {"test_system": "CCRF-CEM leukemia"}, "COLO 205 colon": {"test_system": "COLO 205 colon"}, "DLD-1 colon": {"test_system": "DLD-1 colon"}, "DMS 114 small cell lung": {"test_system": "DMS 114 small cell lung"}, "DMS 273 small cell lung": {"test_system": "DMS 273 small cell lung"}, "EKVX NSCLC": {"test_system": "EKVX NSCLC"}, "HCC-2998 colon": {"test_system": "HCC-2998 colon"}, "HCT-116 colon": {"test_system": "HCT-116 colon"}, "HCT-15 colon": {"test_system": "HCT-15 colon"}, "HL-60(TB) leukemia": {"test_system": "HL-60(TB) leukemia"}, "HOP-18 NSCLC": {"test_system": "HOP-18 NSCLC"}, "HOP-62 NSCLC": {"test_system": "HOP-62 NSCLC"}, "HT29 colon": {"test_system": "HT29 colon"}, "IGROV1 ovarian": {"test_system": "IGROV1 ovarian"}, "K-562 leukemia": {"test_system": "K-562 leukemia"}, "KM12 colon": {"test_system": "KM12 colon"}, "KM20L2 colon": {"test_system": "KM20L2 colon"}, "LOX IMVI melanoma": {"test_system": "LOX IMVI melanoma"}, "LXFL 529 NSCLC": {"test_system": "LXFL 529 NSCLC"}, "M14 melanoma": {"test_system": "M14 melanoma"}, "M19-MEL melanoma": {"test_system": "M19-MEL melanoma"}, "MALME-3M melanoma": {"test_system": "MALME-3M melanoma"}, "MOLT-4 leukemia": {"test_system": "MOLT-4 leukemia"}, "NCI-H226 lung": {"test_system": "NCI-H226 lung"}, "NCI-H23 lung": {"test_system": "NCI-H23 lung"}, "NCI-H460 lung": {"test_system": "NCI-H460 lung"}, "NCI-H522 lung": {"test_system": "NCI-H522 lung"}, "OVCAR-3 ovarian": {"test_system": "OVCAR-3 ovarian"}, "OVCAR-5 ovarian": {"test_system": "OVCAR-5 ovarian"}, "OVCAR-8 ovarian": {"test_system": "OVCAR-8 ovarian"}, "RPMI-8226 leukemia": {"test_system": "RPMI-8226 leukemia"}, "RXF 393 renal": {"test_system": "RXF 393 renal"}, "RXF-631 renal": {"test_system": "RXF-631 renal"}, "SF-268 CNS": {"test_system": "SF-268 CNS"}, "SF-295 CNS": {"test_system": "SF-295 CNS"}, "SF-539 CNS": {"test_system": "SF-539 CNS"}, "SK-MEL-2 melanoma": {"test_system": "SK-MEL-2 melanoma"}, "SK-MEL-28 melanoma": {"test_system": "SK-MEL-28 melanoma"}, "SK-MEL-5 melanoma": {"test_system": "SK-MEL-5 melanoma"}, "SK-OV-3 ovarian": {"test_system": "SK-OV-3 ovarian"}, "SN12C renal": {"test_system": "SN12C renal"}, "SNB-19 CNS": {"test_system": "SNB-19 CNS"}, "SNB-75 CNS": {"test_system": "SNB-75 CNS"}, "SNB-78 CNS": {"test_system": "SNB-78 CNS"}, "SR leukemia": {"test_system": "SR leukemia"}, "SW-620 colon": {"test_system": "SW-620 colon"}, "TK-10 renal": {"test_system": "TK-10 renal"}, "U251 CNS": {"test_system": "U251 CNS"}, "UACC-257 melanoma": {"test_system": "UACC-257 melanoma"}, "UACC-62 melanoma": {"test_system": "UACC-62 melanoma"}, "UO-31 renal": {"test_system": "UO-31 renal"}, "XF 498 CNS": {"test_system": "XF 498 CNS"}},
  "note": "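Where inhibition never reached the appropriate level, the endpoint shown equals the highest concentration tested. Otherwise, values were interpolated linearly from a five-concentration, 48-hour dose response in 96-well plates. The concentration for full growth arrest is given as TGI.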",
  "data": [
    {"smiles": "N#CC(C#N)=Cc1ccc(Oc2ccccc2)cc1", "values": [
      {"measurement": "TGI", "setting": "786-0 renal", "value": 33, "unit": "µM"},
      {"measurement": "TGI", "setting": "A498 renal", "value": "> 100", "unit": "µM"},
      {"measurement": "TGI", "setting": "A549 NSCLC", "value": "> 100", "unit": "µM"},
      {"measurement": "TGI", "setting": "ACHN renal", "value": "> 31.6", "unit": "µM"},
      {"measurement": "TGI", "setting": "CAKI-1 renal", "value": "> 100", "unit": "µM"},
      {"measurement": "TGI", "setting": "CCRF-CEM leukemia", "value": "> 75.4", "unit": "µM"},
      {"measurement": "TGI", "setting": "COLO 205 colon", "value": "> 100", "unit": "µM"},
      {"measurement": "TGI", "setting": "DLD-1 colon", "value": 20.6, "unit": "µM"},
      {"measurement": "TGI", "setting": "DMS 114 small cell lung", "value": 84, "unit": "µM"},
      {"measurement": "TGI", "setting": "DMS 273 small cell lung", "value": 37, "unit": "µM"},
      {"measurement": "TGI", "setting": "EKVX NSCLC", "value": "> 100", "unit": "µM"},
      {"measurement": "TGI", "setting": "HCC-2998 colon", "value": "> 100", "unit": "µM"},
      {"measurement": "TGI", "setting": "HCT-116 colon", "value": 44, "unit": "µM"},
      {"measurement": "TGI", "setting": "HCT-15 colon", "value": "> 100", "unit": "µM"},
      {"measurement": "TGI", "setting": "HL-60(TB) leukemia", "value": 55.1, "unit": "µM"},
      {"measurement": "TGI", "setting": "HOP-18 NSCLC", "value": 89.8, "unit": "µM"},
      {"measurement": "TGI", "setting": "HOP-62 NSCLC", "value": "> 100", "unit": "µM"},
      {"measurement": "TGI", "setting": "HT29 colon", "value": 56.1, "unit": "µM"},
      {"measurement": "TGI", "setting": "IGROV1 ovarian", "value": "> 69", "unit": "µM"},
      {"measurement": "TGI", "setting": "K-562 leukemia", "value": "> 80.4", "unit": "µM"},
      {"measurement": "TGI", "setting": "KM12 colon", "value": "> 100", "unit": "µM"},
      {"measurement": "TGI", "setting": "KM20L2 colon", "value": "> 100", "unit": "µM"},
      {"measurement": "TGI", "setting": "LOX IMVI melanoma", "value": 30.8, "unit": "µM"},
      {"measurement": "TGI", "setting": "LXFL 529 NSCLC", "value": 56.7, "unit": "µM"},
      {"measurement": "TGI", "setting": "M14 melanoma", "value": 47.2, "unit": "µM"},
      {"measurement": "TGI", "setting": "M19-MEL melanoma", "value": "> 64.8", "unit": "µM"},
      {"measurement": "TGI", "setting": "MALME-3M melanoma", "value": 45.3, "unit": "µM"},
      {"measurement": "TGI", "setting": "MOLT-4 leukemia", "value": 98.4, "unit": "µM"},
      {"measurement": "TGI", "setting": "NCI-H226 lung", "value": "> 72.8", "unit": "µM"},
      {"measurement": "TGI", "setting": "NCI-H23 lung", "value": 52.2, "unit": "µM"},
      {"measurement": "TGI", "setting": "NCI-H460 lung", "value": "> 100", "unit": "µM"},
      {"measurement": "TGI", "setting": "NCI-H522 lung", "value": 61.6, "unit": "µM"},
      {"measurement": "TGI", "setting": "OVCAR-3 ovarian", "value": "> 100", "unit": "µM"},
      {"measurement": "TGI", "setting": "OVCAR-5 ovarian", "value": "> 100", "unit": "µM"},
      {"measurement": "TGI", "setting": "OVCAR-8 ovarian", "value": 73.7, "unit": "µM"},
      {"measurement": "TGI", "setting": "RPMI-8226 leukemia", "value": 57.3, "unit": "µM"},
      {"measurement": "TGI", "setting": "RXF 393 renal", "value": "> 100", "unit": "µM"},
      {"measurement": "TGI", "setting": "RXF-631 renal", "value": "> 100", "unit": "µM"},
      {"measurement": "TGI", "setting": "SF-268 CNS", "value": "> 69.5", "unit": "µM"},
      {"measurement": "TGI", "setting": "SF-295 CNS", "value": 59.2, "unit": "µM"},
      {"measurement": "TGI", "setting": "SF-539 CNS", "value": 40.4, "unit": "µM"},
      {"measurement": "TGI", "setting": "SK-MEL-2 melanoma", "value": "> 55.7", "unit": "µM"},
      {"measurement": "TGI", "setting": "SK-MEL-28 melanoma", "value": 25.3, "unit": "µM"},
      {"measurement": "TGI", "setting": "SK-MEL-5 melanoma", "value": 64.7, "unit": "µM"},
      {"measurement": "TGI", "setting": "SK-OV-3 ovarian", "value": "> 100", "unit": "µM"},
      {"measurement": "TGI", "setting": "SN12C renal", "value": 20.6, "unit": "µM"},
      {"measurement": "TGI", "setting": "SNB-19 CNS", "value": "> 100", "unit": "µM"},
      {"measurement": "TGI", "setting": "SNB-75 CNS", "value": "> 91.7", "unit": "µM"},
      {"measurement": "TGI", "setting": "SNB-78 CNS", "value": "> 90.8", "unit": "µM"},
      {"measurement": "TGI", "setting": "SR leukemia", "value": "> 100", "unit": "µM"},
      {"measurement": "TGI", "setting": "SW-620 colon", "value": 72.3, "unit": "µM"},
      {"measurement": "TGI", "setting": "TK-10 renal", "value": "> 100", "unit": "µM"},
      {"measurement": "TGI", "setting": "U251 CNS", "value": "> 57", "unit": "µM"},
      {"measurement": "TGI", "setting": "UACC-257 melanoma", "value": "> 71.3", "unit": "µM"},
      {"measurement": "TGI", "setting": "UACC-62 melanoma", "value": 35, "unit": "µM"},
      {"measurement": "TGI", "setting": "UO-31 renal", "value": "> 71.4", "unit": "µM"},
      {"measurement": "TGI", "setting": "XF 498 CNS", "value": "> 100", "unit": "µM"}
    ]}
  ]
}
